{
  "source": "patent US20240115622A1",
  "about": "“FORMULATION FOR THE PREVENTION AND/OR TREATMENT OF COVID-19” (priority 2022, published 2024)",
  "key": {"VERO E6 cells [1]": {"tested_on": "VERO E6 cells"}, "porcine coronavirus PEDV": {"tested_on": "porcine coronavirus PEDV", "assay": "PEDV infection of Vero E6 cells, antiviral activity by CPE"}, "[2]": {"tested_on": "human respiratory coronavirus OC43", "assay": "HCT-8 cells infected with human respiratory coronavirus OC43, antiviral effect (CPE, WST-1)", "assay_type": "cell-based"}, "VERO E6 cells [3]": {"tested_on": "VERO E6 cells", "assay": "cytotoxicity of the compounds on Vero E6 cells"}},
  "note": "Read-outs that look alike come from different tables or passages of the source.",
  "data": [
    {"compound": "propolis", "values": [
      {"measurement": "cytotoxicity", "setting": "VERO E6 cells [1]", "result": "very high"},
      {"measurement": "cytotoxicity, effect of low concentration of FBS", "setting": "VERO E6 cells [1]", "result": "significantly decreased"}
    ]},
    {"compound": "OC[C@@H](O)[C@H](O)[C@@H](O)CO", "note": "[xylitol]", "values": [
      {"measurement": "visual scores of the CPE, effect against PEDV infection", "setting": "porcine coronavirus PEDV; FIG. 1, 3 days post infection, PEDV-infected Vero E6 cells, low concentrations", "result": "protective effects"},
      {"measurement": "low concentration with protective effect against PEDV infection (below the cytotoxic concentrations)", "setting": "porcine coronavirus PEDV; Vero E6 cells, medium with 2% FBS, speculated, to be better sustained", "result": "≤ 3", "unit": "%"},
      {"measurement": "PEDV induced cytotoxicity", "setting": "porcine coronavirus PEDV; medium without FBS, high concentrations of the compound", "result": "higher"},
      {"measurement": "time for which a significant effect was sustained", "setting": "[2]; after 2 hours of treatment exposure", "result": 4, "unit": "days"},
      {"measurement": "concentration with optimal effect in protecting cells from coronaviral infection", "setting": "[2]; overall conclusion of the coronavirus experiments", "result": 0.5, "unit": "%"},
      {"measurement": "cytotoxicity, effect of low concentration of FBS", "setting": "VERO E6 cells [3]; medium supplemented with 2% FBS", "result": "significantly decreased"},
      {"measurement": "cytotoxicity", "setting": "VERO E6 cells [3]; medium without FBS", "result": "very high"}
    ]}
  ]
}
